The target in assay [1] is human GLP-1 receptor (GLP-1R) (Homo sapiens, UniProt P43220). The assay is described as follows: cAMP pharmacological functional assay in presence of casein, hGLP-1R. As to conditions: HEK293 cells expressing hGLP-1R, 0.1% Casein, geometric mean; read-out: hGLP1R cAMP Rel EC50 nM (SEM, n). The class given is cell-based.
The next assay deals with T1, human GIP receptor (Homo sapiens, UniProt P48546).
T1 construct: expressed in transfected cells; crude membranes
T1 sequence (P48546 22-466): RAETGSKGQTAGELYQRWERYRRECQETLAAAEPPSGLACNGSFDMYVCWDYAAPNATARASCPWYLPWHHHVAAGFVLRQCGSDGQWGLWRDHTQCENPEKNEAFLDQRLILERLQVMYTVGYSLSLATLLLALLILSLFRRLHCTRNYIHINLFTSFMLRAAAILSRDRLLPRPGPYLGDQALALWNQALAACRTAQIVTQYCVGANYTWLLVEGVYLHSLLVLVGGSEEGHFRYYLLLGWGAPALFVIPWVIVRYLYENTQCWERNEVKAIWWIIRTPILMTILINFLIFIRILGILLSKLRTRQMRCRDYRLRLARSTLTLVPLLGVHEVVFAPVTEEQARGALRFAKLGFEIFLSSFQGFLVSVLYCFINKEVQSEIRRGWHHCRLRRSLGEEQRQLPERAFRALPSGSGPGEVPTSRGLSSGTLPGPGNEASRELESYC
The assay is described as follows: [125I]-GIP binding (SPA), human GIP receptor. As to conditions: read-out: hGIPR Ki, nM (SEM, n).

The target of assay [2] is T2, gastric inhibitory peptide receptor (GIPR) (Homo sapiens, UniProt P48546).
T2 sequence (P48546 22-466): T1 sequence (P48546 22-466)
The assay is described as follows: cAMP pharmacological functional assay in presence of casein, hGIPR. The format is cell-based. The note with it: HEK293 cells expressing hGIPR, 0.1% Casein, geometric mean; read-out: hGIPR cAMP Rel EC50 nM (SEM, n).

The target of another assay is human GLP-1R (Homo sapiens, UniProt P43220). The assay is described as follows: [125I]-GLP-1 binding (SPA), human GLP-1 receptor. Set-up: expressed in transfected cells; crude membranes. The note with it: read-out: hGLP1R Ki, (nM) (SEM, n). Put shortly: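 Ki values are geometric means with SEM over independent replicates on different days, derived from IC50s fitted by four-parameter nonlinear regression. The assay used crude cell membranes in HEPES buffer, pH 7.4, containing CaCl2, MgCl2, bacitracin and TWEEN-20.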
Chain of human GLP-1R (P43220 24-463): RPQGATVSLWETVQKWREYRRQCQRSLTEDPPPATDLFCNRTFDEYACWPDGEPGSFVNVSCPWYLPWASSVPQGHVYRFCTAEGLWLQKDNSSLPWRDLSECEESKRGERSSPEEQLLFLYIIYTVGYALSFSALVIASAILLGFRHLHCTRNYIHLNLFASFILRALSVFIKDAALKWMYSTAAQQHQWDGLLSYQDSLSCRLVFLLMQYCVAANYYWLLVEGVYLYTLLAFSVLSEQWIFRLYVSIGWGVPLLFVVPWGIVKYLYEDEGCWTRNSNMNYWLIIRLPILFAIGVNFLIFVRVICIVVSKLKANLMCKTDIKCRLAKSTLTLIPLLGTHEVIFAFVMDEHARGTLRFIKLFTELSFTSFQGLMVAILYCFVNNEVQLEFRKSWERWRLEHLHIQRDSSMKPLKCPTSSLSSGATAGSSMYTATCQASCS

In a further assay the target is T3, human Gcg receptor (Homo sapiens, UniProt P47871).
T3 construct: expressed in transfected cells; crude membranes
T3 sequence (P47871 26-477): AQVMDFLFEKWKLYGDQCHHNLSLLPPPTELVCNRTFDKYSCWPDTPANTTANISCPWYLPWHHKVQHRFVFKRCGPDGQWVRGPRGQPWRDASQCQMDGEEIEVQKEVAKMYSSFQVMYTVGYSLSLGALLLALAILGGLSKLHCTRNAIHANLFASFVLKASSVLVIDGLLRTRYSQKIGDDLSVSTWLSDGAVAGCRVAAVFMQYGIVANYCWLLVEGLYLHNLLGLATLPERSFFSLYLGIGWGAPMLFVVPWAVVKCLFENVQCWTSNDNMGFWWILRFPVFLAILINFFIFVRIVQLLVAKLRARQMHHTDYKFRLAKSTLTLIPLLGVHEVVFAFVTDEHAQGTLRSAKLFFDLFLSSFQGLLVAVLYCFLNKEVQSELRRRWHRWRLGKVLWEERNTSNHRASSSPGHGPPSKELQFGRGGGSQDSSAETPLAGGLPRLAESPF
The assay is described as follows: [125I]-Glucagon binding (SPA), human Gcg receptor. As to conditions: read-out: hGLcgR Ki, nM (SEM, n). In a few lines: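 Cell pellets were lysed in hypotonic Tris buffer, pH 7.5, homogenized, and spun at low then high speed to give crude membranes. Ki was derived from the fitted IC50.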

By EC50 is commonly meant the concentration giving half of the maximal effect. In general, Ki refers to a dissociation constant, usually derived from enzyme kinetics or from competition with a known ligand.

Molecules are shown by their SMILES. Numbered stars: 1 amine (or outer) side, 2 acyl side, 3 side chain; on linkers, the order of the positions; unused ones are H or OH. Square brackets hold non-standard residues; d marks the D form. Side chains are listed from the residue outwards. Peptide text beside a SMILES is read from it. * marks the point of attachment. C20 diacid = O=C(O)CCCCCCCCCCCCCCCCCCC(=O)*; γGlu = O=C(O)[C@H](CCC(=O)[*:2])N[*:1]; AEEA = NCCOCCOCC(=O)O; Aib = CC(C)(N)C(=O)O

Chain of human GLP-1 receptor (GLP-1R) (P43220 24-463): as the sequence (P43220 24-463) above

Turning to `CC[C@H](C)[C@H](NC(=O)[C@H](CC(C)C)NC(=O)[C@H](Cc1ccc(O)cc1)NC(=O)[C@H](CCC(=O)O)NC(=O)[C@@H](NC(=O)[C@H](Cc1ccccc1)NC(=O)[C@H](C)NC(=O)C(C)(C)NC(=O)[C@H](CCC(N)=O)NC(=O)[C@H](CCCCNC(=O)COCCOCCNC(=O)COCCOCCNC(=O)CC[C@H](NC(=O)CCCCCCCCCCCCCCCCCCC(=O)O)C(=O)O)NC(=O)[C@@H](NC(=O)[C@H](CCCCN)NC(=O)[C@H](CC(=O)O)NC(=O)[C@H](CC(C)C)NC(=O)[C@H](CC(C)C)NC(=O)[C@@H](NC(=O)[C@H](CO)NC(=O)[C@H](Cc1ccc(O)cc1)NC(=O)[C@H](CC(=O)O)NC(=O)[C@H](CO)NC(=O)[C@@H](NC(=O)[C@H](Cc1ccccc1)NC(=O)[C@@H](NC(=O)CNC(=O)[C@H](CCC(=O)O)NC(=O)C(C)(C)NC(=O)[C@@H](N)Cc1ccc(O)cc1)[C@@H](C)O)[C@@H](C)O)[C@@H](C)CC)[C@@H](C)CC)[C@@H](C)CC)C(=O)N[C@@H](CCC(=O)O)C(=O)NCC(=O)NCC(=O)N1CCC[C@H]1C(=O)N[C@@H](CO)C(=O)N[C@@H](CO)C(=O)NCC(=O)N[C@@H](C)C(=O)N1CCC[C@H]1C(=O)N1CCC[C@H]1C(=O)N1CCC[C@H]1C(=O)N[C@@H](CO)C(N)=O` [Example 30] (H-Y[Aib]EGTFTSDYSILLDKIK([AEEA-AEEA-γGlu-C20 diacid])Q[Aib]AFIEYLIEGGPSSGAPPPS-NH2), the EC50 in assay [1] came to 1.84 nM; in assay [2], 0.114 nM. For the same molecule, the values for the Ki on human GIP receptor, at human GLP-1R and at human Gcg receptor were 0.151 nM, 6.2 nM and 123 nM, respectively.
In the same order, the values of `CC[C@H](C)[C@H](NC(=O)[C@H](CCCCN)NC(=O)[C@H](CC(=O)O)NC(=O)[C@H](CC(C)C)NC(=O)[C@H](CC(C)C)NC(=O)[C@@H](NC(=O)[C@H](CO)NC(=O)[C@H](Cc1ccc(O)cc1)NC(=O)[C@H](CC(=O)O)NC(=O)[C@H](CO)NC(=O)[C@@H](NC(=O)[C@H](Cc1ccccc1)NC(=O)[C@@H](NC(=O)CNC(=O)[C@H](CCC(=O)O)NC(=O)C(C)(C)NC(=O)[C@@H](N)Cc1ccc(O)cc1)[C@@H](C)O)[C@@H](C)O)[C@@H](C)CC)C(=O)N[C@@H](C)C(=O)N[C@@H](CCCCNC(=O)COCCOCCNC(=O)COCCOCCNC(=O)CC[C@H](NC(=O)CCCCCCCCCCCCCCCCCCC(=O)O)C(=O)O)C(=O)NC(C)(C)C(=O)N[C@@H](C)C(=O)N[C@@H](Cc1ccccc1)C(=O)N[C@H](C(=O)N[C@@H](CCC(=O)O)C(=O)N[C@@H](Cc1ccc(O)cc1)C(=O)N[C@@H](CC(C)C)C(=O)N[C@H](C(=O)N[C@@H](CCC(=O)O)C(=O)NCC(=O)NCC(=O)N1CCC[C@H]1C(=O)N[C@@H](CO)C(=O)N[C@@H](CO)C(=O)NCC(=O)N[C@@H](C)C(=O)N1CCC[C@H]1C(=O)N1CCC[C@H]1C(=O)N1CCC[C@H]1C(=O)N[C@@H](CO)C(N)=O)[C@@H](C)CC)[C@@H](C)CC` [Example 31] (H-Y[Aib]EGTFTSDYSILLDKIAK([AEEA-AEEA-γGlu-C20 diacid])[Aib]AFIEYLIEGGPSSGAPPPS-NH2) are 0.891 nM, 0.388 nM, 0.0275 nM, 6.58 nM and 290 nM.
For `CC[C@H](C)[C@H](NC(=O)[C@H](CCCCN)NC(=O)[C@H](CC(=O)O)NC(=O)[C@H](CC(C)C)NC(=O)[C@H](CC(C)C)NC(=O)[C@@H](NC(=O)[C@H](CO)NC(=O)[C@H](Cc1ccc(O)cc1)NC(=O)[C@H](CC(=O)O)NC(=O)[C@H](CO)NC(=O)[C@@H](NC(=O)[C@H](Cc1ccccc1)NC(=O)[C@@H](NC(=O)CNC(=O)[C@H](CCC(=O)O)NC(=O)C(C)(C)NC(=O)[C@@H](N)Cc1ccc(O)cc1)[C@@H](C)O)[C@@H](C)O)[C@@H](C)CC)C(=O)N[C@@H](C)C(=O)N[C@@H](CCC(N)=O)C(=O)NC(C)(C)C(=O)N[C@@H](CCCCNC(=O)COCCOCCNC(=O)COCCOCCNC(=O)CC[C@H](NC(=O)CCCCCCCCCCCCCCCCCCC(=O)O)C(=O)O)C(=O)N[C@@H](Cc1ccccc1)C(=O)N[C@H](C(=O)N[C@@H](CCC(=O)O)C(=O)N[C@@H](Cc1ccc(O)cc1)C(=O)N[C@@H](CC(C)C)C(=O)N[C@H](C(=O)N[C@@H](CCC(=O)O)C(=O)NCC(=O)NCC(=O)N1CCC[C@H]1C(=O)N[C@@H](CO)C(=O)N[C@@H](CO)C(=O)NCC(=O)N[C@@H](C)C(=O)N1CCC[C@H]1C(=O)N1CCC[C@H]1C(=O)N1CCC[C@H]1C(=O)N[C@@H](CO)C(N)=O)[C@@H](C)CC)[C@@H](C)CC` [Example 32] (H-Y[Aib]EGTFTSDYSILLDKIAQ[Aib]K([AEEA-AEEA-γGlu-C20 diacid])FIEYLIEGGPSSGAPPPS-NH2), in that order: 0.498 nM, 0.179 nM, 0.0205 nM, 3.96 nM and 44.7 nM.
In the same order, the values of `CC[C@H](C)[C@H](NC(=O)[C@H](CCCCN)NC(=O)[C@H](CC(=O)O)NC(=O)[C@H](CC(C)C)NC(=O)[C@H](CC(C)C)NC(=O)[C@@H](NC(=O)[C@H](CO)NC(=O)[C@H](Cc1ccc(O)cc1)NC(=O)[C@H](CC(=O)O)NC(=O)[C@H](CO)NC(=O)[C@@H](NC(=O)[C@H](Cc1ccccc1)NC(=O)[C@@H](NC(=O)CNC(=O)[C@H](CCC(=O)O)NC(=O)C(C)(C)NC(=O)[C@@H](N)Cc1ccc(O)cc1)[C@@H](C)O)[C@@H](C)O)[C@@H](C)CC)C(=O)N[C@@H](C)C(=O)N[C@@H](CCC(N)=O)C(=O)NC(C)(C)C(=O)N[C@@H](C)C(=O)N[C@@H](Cc1ccccc1)C(=O)N[C@@H](CCCCNC(=O)COCCOCCNC(=O)COCCOCCNC(=O)CC[C@H](NC(=O)CCCCCCCCCCCCCCCCCCC(=O)O)C(=O)O)C(=O)N[C@@H](CCC(=O)O)C(=O)N[C@@H](Cc1ccc(O)cc1)C(=O)N[C@@H](CC(C)C)C(=O)N[C@H](C(=O)N[C@@H](CCC(=O)O)C(=O)NCC(=O)NCC(=O)N1CCC[C@H]1C(=O)N[C@@H](CO)C(=O)N[C@@H](CO)C(=O)NCC(=O)N[C@@H](C)C(=O)N1CCC[C@H]1C(=O)N1CCC[C@H]1C(=O)N1CCC[C@H]1C(=O)N[C@@H](CO)C(N)=O)[C@@H](C)CC` [Example 33] (H-Y[Aib]EGTFTSDYSILLDKIAQ[Aib]AFK([AEEA-AEEA-γGlu-C20 diacid])EYLIEGGPSSGAPPPS-NH2; N-terminus assumed) are 251 nM, 63.3 nM, 6.4 nM, 361 nM and above 979 nM.
In the case of `CC[C@H](C)[C@H](NC(=O)[C@H](CCCCN)NC(=O)[C@H](CC(=O)O)NC(=O)[C@H](CC(C)C)NC(=O)[C@H](CC(C)C)NC(=O)[C@@H](NC(=O)[C@H](CO)NC(=O)[C@H](Cc1ccc(O)cc1)NC(=O)[C@H](CC(=O)O)NC(=O)[C@H](CO)NC(=O)[C@@H](NC(=O)[C@H](Cc1ccccc1)NC(=O)[C@@H](NC(=O)CNC(=O)[C@H](CCC(=O)O)NC(=O)C(C)(C)NC(=O)[C@@H](N)Cc1ccc(O)cc1)[C@@H](C)O)[C@@H](C)O)[C@@H](C)CC)C(=O)N[C@@H](C)C(=O)N[C@@H](CCC(N)=O)C(=O)NC(C)(C)C(=O)N[C@@H](C)C(=O)N[C@@H](Cc1ccccc1)C(=O)N[C@H](C(=O)N[C@@H](CCCCNC(=O)COCCOCCNC(=O)COCCOCCNC(=O)CC[C@H](NC(=O)CCCCCCCCCCCCCCCCCCC(=O)O)C(=O)O)C(=O)N[C@@H](Cc1ccc(O)cc1)C(=O)N[C@@H](CC(C)C)C(=O)N[C@H](C(=O)N[C@@H](CCC(=O)O)C(=O)NCC(=O)NCC(=O)N1CCC[C@H]1C(=O)N[C@@H](CO)C(=O)N[C@@H](CO)C(=O)NCC(=O)N[C@@H](C)C(=O)N1CCC[C@H]1C(=O)N1CCC[C@H]1C(=O)N1CCC[C@H]1C(=O)N[C@@H](CO)C(N)=O)[C@@H](C)CC)[C@@H](C)CC` [Example 34] (H-Y[Aib]EGTFTSDYSILLDKIAQ[Aib]AFIK([AEEA-AEEA-γGlu-C20 diacid])YLIEGGPSSGAPPPS-NH2), the figures for the EC50 in assay [1] and in assay [2] were 1.56 nM and 0.36 nM, respectively. Also, the results for the Ki on human GIP receptor, at human GLP-1R and on human Gcg receptor were 0.0467 nM, 3.41 nM and 134 nM, respectively.

The values are drawn from patent US12252524B2, “GIP/GLP1 co-agonist compounds” (Eli Lilly and Company, priority 2018, dated 2025).
